The text below walks through data of US12527884B2, “Use of cyclodextrins as a radiostabilizer” (GE Healthcare Limited, priority 2019, dated 2026).

A short description of data set [1]: Radiochemical purity (RCP) and [18F]fluoride of formulated [18F]flurpiridaz during storage (radio TLC or HPLC). Type of data set: physicochemical. The protocol:
Radiochemical purity (RCP) is determined using radio TLC or HPLC and can be defined as the ratio of the (radio-labelled) drug substance peak to the total (radio-labelled) peaks in the chromatogram. If one manufactures a radiopharmaceutical with high radioactive concentration (RAC), the drop in RCP during storage is likely to be higher than at lower RAC due to more radiolysis. High radioactivity results in the drug substance destroying itself (i.e. radiolysis). The most efficient stabilizer can be identified by preparing different formulations of radiopharmaceuticals at similar RAC and comparing the drop in RCP over time, typically 8-10 hours for ^18F compounds.
The first 45 mL product vial was composed of water (42 mL), ethanol (3 mL), calcium disodium edetate (0.25 mg/mL), ascorbic acid (50 mg/mL) and sodium hydroxide (7.5 mg/mL). […]

Data set [2] can be described thus: Aqueous solubility of flurpiridaz with HPbCD. Type of data set: physicochemical.

For `CC(C)(C)n1ncc(OCc2ccc(COCCF)cc2)c(Cl)c1=O` [[^18F]flurpiridaz, flurpiridaz], the radiostability entry in data set [1] (30 mg/mL ascorbic acid and 40 mg/mL HPbCD vs 50 mg/mL ascorbic acid without HPbCD) was “equal or better”. Besides, the “change in RCP over 4 to 10 h (FIG. 2)” value in data set [1] (30 to 50 mg/mL ascorbic acid (pH ~6), with or without 40-47 mg/mL HPbCD, ca. 7% (v/v) ethanol, 0-21% (v/v) oxygen headspace) was “reduction”. Also, the aqueous solubility result in data set [2] is given as “improves”.
